We go through two compounds from paper PMC8036409 (Molecules, 2021).

Experiment [1] is described as follows: ABTS free radical scavenging assay. The conditions noted are these: for ABTS Percent Inhibition (Mean ± S.E.M): n = 3. Here is the method: (§1) The free radical scavenging capacity of the isolated compounds was determined using DPPH and ABTS assays. To prepare the DPPH stock solution, 30 mg of DPPH was dissolved in 100 mL of methanol. Likewise, to prepare ABTS stock solution, 383 mg of 7 mM ABTS and 66.2 mg of 2.45 mM K2S2O8 were taken, each of them was individually dissolved in 100 mL of methanol and mixed together thoroughly. For the free radical development, the solutions were kept in dark for one day. Different dilutions (62.5, 125, 250, 500, 1000 μg/mL) from each of the sample stock solutions (5 mg/5 mL of methanol) were prepared. Each of the dilutions (0.8 mL) was mixed with 0.8 mL of DPPH stock solution and incubated for 15 min and their absorbance was recorded at 515 nm. Likewise, 0.8 mL of each of the same dilutions was mixed with 2 mL of ABTS solution, incubated for 25 min and their absorbance was recorded at 745 nm. The percent scavenging potentials of compounds were calculated using the following equation:(1) Percent scavenging= A−B/A × 100, where A is the absorbance of oxidized stock (DPPH/ABTS) used as control, and B is the absorbance of the sample.

Experiment [2] is described as follows: DPPH free radical scavenging assay. Conditions: for DPPH Percent Inhibition (Mean ± S.E.M): n = 3. Here is the method:
as §1
For orientation: The DPPH test is a chemical assay of radical scavenging.

Experiment [3] deals with T1, butyrylcholinesterase (BChE) (Homo sapiens, UniProt P06276). Kind of experiment: Butyrylcholinesterase inhibition, Ellman's assay. The class given is biochemical. Conditions: read-out: Percent BChE (Mean ± SEM), %inhibition.
T1 sequence (P06276 29-602, species assumed): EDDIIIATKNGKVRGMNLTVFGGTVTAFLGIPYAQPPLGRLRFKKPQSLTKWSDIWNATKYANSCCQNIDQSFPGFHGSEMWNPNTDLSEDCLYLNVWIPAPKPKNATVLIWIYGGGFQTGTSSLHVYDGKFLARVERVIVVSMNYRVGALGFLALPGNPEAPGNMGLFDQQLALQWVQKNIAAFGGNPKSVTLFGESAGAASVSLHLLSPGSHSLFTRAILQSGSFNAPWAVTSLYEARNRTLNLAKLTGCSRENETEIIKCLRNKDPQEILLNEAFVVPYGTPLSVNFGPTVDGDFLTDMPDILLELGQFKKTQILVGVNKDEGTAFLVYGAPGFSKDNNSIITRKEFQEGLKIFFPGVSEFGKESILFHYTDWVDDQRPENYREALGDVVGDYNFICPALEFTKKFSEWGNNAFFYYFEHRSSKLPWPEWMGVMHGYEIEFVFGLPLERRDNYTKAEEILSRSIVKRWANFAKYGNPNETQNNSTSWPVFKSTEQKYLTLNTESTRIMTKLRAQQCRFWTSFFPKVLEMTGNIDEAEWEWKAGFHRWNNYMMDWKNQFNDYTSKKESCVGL
Experiment [4] concerns the target T1, butyrylcholinesterase (BChE). Kind of experiment: Butyrylcholinesterase inhibition, Ellman's assay. It counts as biochemical. As to the method: (§2) AChE and BChE were used as representative enzymes to determine the anticholinesterase effect of isolated compounds using Ellman’s assay with slight modifications. Sample stocks (5 mg/5 mL in methanol) were prepared and a range of serial dilutions (125, 250, 500, 1000 μg/mL) was made from each of them. Phosphate buffer (6.8 pH) was used for making the enzyme and substrate solutions.
(In general: Ellman's reagent forms a yellow product with free thiols.)

Experiment [5] addresses T2, acetylcholinesterase (AChE) (Homo sapiens, UniProt P22303). Kind of experiment: biochemical. Conditions: read-out: Percent AChE (Mean ± SEM), %inhibition.
Experiment [6] concerns the target T2, acetylcholinesterase (AChE). Put plainly: biochemical. As to the method:
as §2

Experiment [7] concerns the target α-amylase. Put plainly: α-Amylase inhibition assay (DNS method). The class given is biochemical. The conditions noted are these: for Percent Inhibition of α-Amylase (Mean ± S.E.M): n = 3. As to the method: The degree of inhibition was assessed by quantifying maltose equivalents using a slightly modified dinitrosalicylic acid (DNS) method. From each of the sample dilutions, 1 mL was pre-incubated with 1 U/mL α-amylase for half an hour. After incubation, 1 mL of 1% of starch solution was added to the mixture and further incubated for 10 min. To stop the reaction, 1 mL DNS reagent was added to the reaction mixture and heated in a boiling water bath for 5 min. […] The absorbance was measured at 540 nm.

Where [8] appears, read: read-out: Percent BChE (Mean ± SEM), %inhibition.
[9] abbreviates: read-out: Percent AChE (Mean ± SEM), %inhibition.

T2 sequence (P22303 32-614, species assumed): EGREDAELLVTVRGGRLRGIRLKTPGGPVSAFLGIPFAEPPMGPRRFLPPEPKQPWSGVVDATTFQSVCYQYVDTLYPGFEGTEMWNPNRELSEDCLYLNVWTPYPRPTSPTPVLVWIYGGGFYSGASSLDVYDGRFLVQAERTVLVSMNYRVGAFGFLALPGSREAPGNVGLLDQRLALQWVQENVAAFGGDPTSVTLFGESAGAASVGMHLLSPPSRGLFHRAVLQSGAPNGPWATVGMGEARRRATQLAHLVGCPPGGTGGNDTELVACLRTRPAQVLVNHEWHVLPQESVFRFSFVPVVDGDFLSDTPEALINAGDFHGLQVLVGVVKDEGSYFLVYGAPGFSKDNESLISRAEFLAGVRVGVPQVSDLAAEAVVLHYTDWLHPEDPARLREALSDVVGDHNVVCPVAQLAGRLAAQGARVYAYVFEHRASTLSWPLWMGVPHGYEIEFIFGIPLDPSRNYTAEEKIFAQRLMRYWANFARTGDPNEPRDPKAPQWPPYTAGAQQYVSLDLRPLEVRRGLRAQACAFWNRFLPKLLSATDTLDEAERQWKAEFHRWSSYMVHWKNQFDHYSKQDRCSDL

Take `O=C1O[C@H]([C@@H](O)CO)C(O)=C1O` [Ascorbic Acid, reference compound]: the “ABTS IC50” value in experiment [1] amounted to 35 µg/mL. For the same compound, the “ABTS Percent Inhibition (Mean ± S.E.M)” value in experiment [1] (62.5 μg/mL) was determined as 55.41 ± 1.39%; in experiment [1] (125 μg/mL), 63.30 ± 2.75%; in experiment [1] (250 μg/mL), 75.14 ± 3.16%; in experiment [1] (500 μg/mL) it was 83.45 ± 2.26%; in experiment [1] (1000 μg/mL) it was 93.07 ± 0.53%. Besides, the “DPPH IC50” value in experiment [2] is 35 µg/mL. Moreover, the “DPPH Percent Inhibition (Mean ± S.E.M)” value in experiment [2] (62.5 μg/mL) is 55.12 ± 1.30%; in experiment [2] (125 μg/mL), 65.35 ± 1.08%; in experiment [2] (250 μg/mL), 78.63 ± 1.48%; in experiment [2] (500 μg/mL) it was 87.87 ± 1.64%; in experiment [2] (1000 μg/mL) it was 94.14 ± 1.76%.
As usually defined, the inhibition is the percentage by which the read-out fell short of the control. In general, IC50 refers to the concentration that inhibits the measured activity by half. As to `CC(C)CCCCC1CC2CC(C)(C)C3C4CC(C)(C)C5CC(O)CC(C)C5C4CC(C)C3C2C1` (stereo not shown) [Compound IX, 5,5,7,7,11,13-hexamethyl-2-(5-methylhexyl)icosahydro-1H-cyclopenta[a]chrysen-9-ol], the inhibition at 62.5 µg/mL in experiment [3] was 45.9 ± 1.26%; in experiment [5] it was 46 ± 1.71%. The half-inhibitory concentration (IC50) in experiment [4] and in experiment [6] (read-out: AChE IC50 (converted)) was 186 µM in each case. Also, the inhibition at 125 µg/mL in experiment [4] (setting [8]) came out at 55.4 ± 1.01%. In addition, the figures for the inhibition at 250 µg/mL in experiment [4] (setting [8]) and in experiment [6] (setting [9]) were 63 ± 1.45% and 63.1 ± 1.51%, respectively. The inhibition at 500 µg/mL in experiment [4] (setting [8]) was 70.2 ± 0.71%; in experiment [6] (setting [9]) it was 71.3 ± 1.37%. The inhibition at 1000 µg/mL in experiment [4] (setting [8]) was 78 ± 2.62%; in experiment [6] (setting [9]), 78.11 ± 0.61%. Moreover, the “ABTS IC50” value in experiment [1] worked out at 76 µg/mL. Besides, the “ABTS Percent Inhibition (Mean ± S.E.M)” value in experiment [1] (62.5 μg/mL) is given as 47.83 ± 2.26%; in experiment [1] (125 μg/mL) it was 57.19 ± 2.01%; in experiment [1] (250 μg/mL) it was 62.24 ± 2.30%; in experiment [1] (500 μg/mL) it was 71.29 ± 1.11%; in experiment [1] (1000 μg/mL), 79.23 ± 1.01%. Besides, the “DPPH IC50” value in experiment [2] worked out at 76 µg/mL. For the same compound, the “DPPH Percent Inhibition (Mean ± S.E.M)” value in experiment [2] (62.5 μg/mL) is recorded as 47.85 ± 2.61%; in experiment [2] (250 μg/mL), 64.11 ± 2.91%; in experiment [2] (500 μg/mL), 72.19 ± 2.17%; in experiment [2] (1000 μg/mL), 80.21 ± 040 ^ns percent. Besides, in experiment [7], the “α-Amylase IC50” value was found to be 122 µg/mL. Further, the “Percent Inhibition of α-Amylase (Mean ± S.E.M)” value in experiment [7] (62.5 μg/mL) worked out at 40.13 ± 1.27 %; in experiment [7] (125 μg/mL) it was 50.61 ± 1.52 %; in experiment [7] (250 μg/mL), 59.14 ± 0.82 %; in experiment [7] (500 μg/mL), 65.13 ± 1.43 %; in experiment [7] (1000 μg/mL), 70.21 ± 1.91 %.
